From patent publication US20130012432A1, “Peptides for Treatment of Obesity” (Novo Nordisk A/S, priority 2010, published 2013)
Values after ≈ are worked out from the molar mass of the structure shown. Positions of bridges follow the written chain, without caps; N, C: chain ends. Non-standard residues stand in square brackets, D forms with d. Residues, ends and D or L forms follow the SMILES beside them. Groups on a side chain read outwards from the residue. *: point of attachment. Palmitoyl(16-(5-tetrazolyl)) = O=C(CCCCCCCCCCCCCCCc1nnn[nH]1)*; Lys(CH2CO2H)2 = N[C@@H](CCCCN(CC(=O)O)CC(=O)O)C(=O)O; X1 = O=C(O)CCCCCCCCCCCCCCCCC(=O)NCCOCCOCCN*; C18 diacid = O=C(O)CCCCCCCCCCCCCCCCC(=O)*; C16 diacid = O=C(O)CCCCCCCCCCCCCCC(=O)*; Orn = NCCC[C@H](N)C(=O)O; Dap = NC[C@H](N)C(=O)O; AEEA = NCCOCCOCC(=O)O

Assay: physchem
Description: From a stock solution in vehicle, either H2O or 10 mM phosphate, containing 1 mg (as weighed) compound per ml, 8-11 aliquots are withdrawn and pH-adjusted individually with HCl/NaOH, to cover the whole pH range.

SMILES	solubility (pH 6.5, Solubility Conc.) [µM]	solubility (pH 6.7, Solubility Conc.) [µM]	solubility (pH 6.8, Solubility Conc.) [µM]	solubility (pH 7.2, Solubility Conc.) [µM]	solubility (pH 7.4, Solubility Conc.) [µM]	solubility (pH 7.7, Solubility Conc.) [µM]	solubility (pH 7.9, Solubility Conc.) [µM]	solubility (pH 6.1, Solubility Conc.) [µM]	solubility (pH 7.1, Solubility Conc.) [µM]	solubility (pH 7.6, Solubility Conc.) [µM]	solubility (pH 7.8, Solubility Conc.) [µM]	solubility (pH 6.4, Solubility Conc.) [µM]	solubility (pH 7.3, Solubility Conc.) [µM]	solubility (pH 7.5, Solubility Conc.) [µM]	solubility (pH 7, Solubility Conc.) [µM]	other results
CC(=O)N[C@H]1CCC(=O)NCCC[C@@H](C(=O)N2CCC[C@H]2C(=O)N2CCC[C@H]2C(=O)N[C@@H](Cc2c[nH]cn2)C(=O)N[C@@H](CC(=O)O)C(=O)N[C@@H](CCCCN(CC(=O)O)CC(=O)O)C(=O)N[C@@H](CCCCNC(=O)COCCOCCNC(=O)CCCCCCCCCCCCCCCc2nnn[nH]2)C(N)=O)NC(=O)[C@H](Cc2c[nH]c3ccccc23)NC(=O)[C@H](CCCNC(=N)N)NC(=O)[C@@H](Cc2ccccc2)NC(=O)[C@H](Cc2c[nH]cn2)NC1=O [Example 43, Ac-c[Glu-His-D-Phe-Arg-Trp-Orn]-Pro-Pro-His-Asp-Lys(biscarboxymethyl)-Lys[(2-{2-[16-(tetrazol-5-yl)hexadecanoylamino]ethoxy}ethoxy)acetyl]-NH2] (Ac-EH[dF]RW[Orn]PPHD[Lys(CH2CO2H)2]K([AEEA-Palmitoyl(16-(5-tetrazolyl))])-NH2; lactam 1-6)	75 (≈ 164 µg/mL)	315 (≈ 687 µg/mL)	478 (≈ 1040 µg/mL)	478 (≈ 1040 µg/mL)	506 (≈ 1100 µg/mL)	487 (≈ 1060 µg/mL)	490 (≈ 1070 µg/mL)	–	–	–	–	–	–	–	–	solubility (pH 5.9, Solubility Conc.): 27 µM (≈ 58.9 µg/mL); solubility (pH 8.1, Solubility Conc.): 493 µM (≈ 1080 µg/mL)
CC(=O)N[C@H]1CCCNC(=O)C[C@@H](C(=O)N2CCC[C@H]2C(=O)N2CCC[C@H]2C(=O)N[C@@H](Cc2c[nH]cn2)C(=O)N[C@@H](CCC(=O)O)C(=O)N[C@@H](CCCCN(CC(=O)O)CC(=O)O)C(=O)N[C@@H](CCCCNC(=O)COCCOCCNC(=O)CCCCCCCCCCCCCCCCC(=O)O)C(N)=O)NC(=O)[C@H](Cc2c[nH]c3ccccc23)NC(=O)[C@H](CCCNC(=N)N)NC(=O)[C@@H](Cc2ccccc2)NC(=O)[C@H](Cc2c[nH]cn2)NC1=O [Example 46, Ac-c[Orn-His-D-Phe-Arg-Trp-Asp]-Pro-Pro-His-Glu-Lys(biscarboxymethyl)-Lys({2-[2-(17-carboxyheptadecanoylamino)ethoxy]ethoxy}acetyl)-NH2] (Ac-[Orn]H[dF]RWDPPHE[Lys(CH2CO2H)2]K([AEEA-C18 diacid])-NH2; lactam 1-6)	–	422 (≈ 916 µg/mL)	471 (≈ 1020 µg/mL)	–	–	–	–	47 (≈ 102 µg/mL)	494 (≈ 1070 µg/mL)	509 (≈ 1110 µg/mL)	507 (≈ 1100 µg/mL)	–	–	–	–	solubility (pH 5, Solubility Conc.): 25 µM (≈ 54.3 µg/mL); solubility (pH 5.4, Solubility Conc.): 24 µM (≈ 52.1 µg/mL); solubility (pH 6.6, Solubility Conc.): 160 µM (≈ 347 µg/mL)
CC(=O)N[C@H]1CNC(=O)CC[C@@H](C(=O)N2CCC[C@H]2C(=O)N2CCC[C@H]2C(=O)N[C@@H](CCCNC(=N)N)C(=O)N[C@@H](CC(=O)O)C(=O)N[C@@H](CCCCN(CC(=O)O)CC(=O)O)C(=O)N[C@@H](CCCCNC(=O)COCCOCCNC(=O)CCCCCCCCCCCCCCCc2nnn[nH]2)C(N)=O)NC(=O)[C@H](Cc2c[nH]c3ccccc23)NC(=O)[C@H](CCCNC(=N)N)NC(=O)[C@@H](Cc2ccccc2)NC(=O)[C@H](Cc2c[nH]cn2)NC1=O [Example 47, Ac-c[Dap-His-D-Phe-Arg-Trp-Glu]-Pro-Pro-Arg-Asp-Lys(biscarboxymethyl)-Lys[(2-{2-[16-(tetrazol-5-yl)hexadecanoylamino]ethoxy}ethoxy)acetyl]-NH2] (Ac-[Dap]H[dF]RWEPPRD[Lys(CH2CO2H)2]K([AEEA-Palmitoyl(16-(5-tetrazolyl))])-NH2; lactam 1-6)	–	–	–	219 (≈ 476 µg/mL)	–	–	493 (≈ 1070 µg/mL)	–	103 (≈ 224 µg/mL)	371 (≈ 806 µg/mL)	–	24 (≈ 52.1 µg/mL)	366 (≈ 795 µg/mL)	379 (≈ 823 µg/mL)	–	solubility (pH 6.9, Solubility Conc.): 56 µM (≈ 122 µg/mL)
CC(=O)N[C@H]1CCCNC(=O)C[C@@H](C(=O)N2CCC[C@H]2C(=O)N2CCC[C@H]2C(=O)N[C@@H](CCCNC(=N)N)C(=O)N[C@@H](CCC(=O)O)C(=O)N[C@@H](CCCCN(CC(=O)O)CC(=O)O)C(=O)N[C@@H](CO)C(=O)N[C@@H](CO)C(=O)NCCOCCOCCNC(=O)CCCCCCCCCCCCCCCCC(=O)O)NC(=O)[C@H](Cc2c[nH]c3ccccc23)NC(=O)[C@H](CCCNC(=N)N)NC(=O)[C@@H](Cc2ccccc2)NC(=O)[C@H](Cc2c[nH]cn2)NC1=O [Example 50, Ac-c[Orn-His-D-Phe-Arg-Trp-Asp]-Pro-Pro-Arg-Glu-Lys(biscarboxymethyl)-Ser-Ser-NH(2-{2-[2-(17-carboxyheptadecanoylamino)ethoxy]ethoxy}ethyl)] (Ac-[Orn]H[dF]RWDPPRE[Lys(CH2CO2H)2]SS-X1; lactam 1-6)	57 (≈ 127 µg/mL)	–	–	123 (≈ 273 µg/mL)	156 (≈ 347 µg/mL)	197 (≈ 438 µg/mL)	208 (≈ 462 µg/mL)	–	–	–	212 (≈ 471 µg/mL)	–	–	176 (≈ 391 µg/mL)	92 (≈ 204 µg/mL)	solubility (pH 8.2, Solubility Conc.): 212 µM (≈ 471 µg/mL)
CC(=O)N[C@H]1CCCNC(=O)C[C@@H](C(=O)N2CCC[C@H]2C(=O)N2CCC[C@H]2C(=O)N[C@@H](Cc2c[nH]cn2)C(=O)N[C@@H](CCC(=O)O)C(=O)N[C@@H](CCCCN(CC(=O)O)CC(=O)O)C(=O)N[C@@H](CCCCNC(=O)COCCOCCNC(=O)CCCCCCCCCCCCCCC(=O)O)C(N)=O)NC(=O)[C@H](Cc2c[nH]c3ccccc23)NC(=O)[C@H](CCCNC(=N)N)NC(=O)[C@@H](Cc2ccccc2)NC(=O)[C@H](Cc2c[nH]cn2)NC1=O [Example 51, Ac-c[Orn-His-D-Phe-Arg-Trp-Asp]-Pro-Pro-His-Glu-Lys(biscarboxymethyl)-Lys({2-[2-(15-carboxypentadecanoylamino)ethoxy]ethoxy}acetyl)-NH2] (Ac-[Orn]H[dF]RWDPPHE[Lys(CH2CO2H)2]K([AEEA-C16 diacid])-NH2; lactam 1-6)	–	460 (≈ 986 µg/mL)	–	–	–	–	–	359 (≈ 770 µg/mL)	–	485 (≈ 1040 µg/mL)	457 (≈ 980 µg/mL)	450 (≈ 965 µg/mL)	468 (≈ 1000 µg/mL)	–	442 (≈ 947 µg/mL)	solubility (pH 5.3, Solubility Conc.): 204 µM (≈ 437 µg/mL); solubility (pH 5.8, Solubility Conc.): 280 µM (≈ 600 µg/mL)
